The data set can be described thus: gradient 5% acetonitrile 3 min, to 50% in 2 min, to 85% in 15 min, held 3 min, 100 µL/min. The conditions noted are these: column: Zorbax Extend-C18 2.1 x 50 mm; eluents: water / acetonitrile, 0.1% formic acid. The method in brief: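 Retention times of pure standards were taken from adduct peaks that were selected by computer and manually inspected. Over 3 months, mixtures of ~100 molecules were run by HPLC–quadrupole time-of-flight mass spectrometry in positive and negative ionization mode. The Zorbax Extend-C18 column (2.1 × 50 mm, 1.8 μm) ran at 100 μL/min in water and acetonitrile, each containing 0.1% formic acid, with 40 μL dead volume and 900 μL dwell volume.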
Consider `CCc1ccccc1S(=O)(=O)N1CCC(n2cnnc2CC)CC1`, for which the RP-LC retention time turned out to be 595 s.

On to `O=C(Cn1ccc2ccc(N3CCOCC3)nc21)NCc1ccc(F)cc1F`, for which the RP-LC retention time came out at 870 s.

Consider `CCc1nnc([C@@H]2CC(F)(F)CN2C(=O)c2nccn2C)o1`, for which the RP-LC retention time is 631 s.

In turn, `CCCC(=O)Nc1ccc2nc(N3CCN(c4cccc(C)c4C)CC3)cc(C(=O)O)c2c1` yielded an RP-LC retention time of 732 s.

`Cc1cc(Cl)ccc1NS(=O)(=O)c1cc(-c2cc(C(F)(F)F)on2)sc1C`: the RP-LC retention time turned out to be 1260 s.

`COc1ccc(NC(=O)C2CCCN(c3nnc4ccccn34)C2)cc1C(F)(F)F` (stereo not drawn) gave an RP-LC retention time of 704 s.

As for `COc1ccc2nc3oc(C(=O)NCCCN4CCCC(C)C4)cc3cc2c1` (stereo not drawn), the RP-LC retention time stood at 934 s.

`Cc1cc2n(n1)CCCN2C(=O)CCC(=O)NCc1ccc(N(C)C)cc1` registered an RP-LC retention time of 609 s.

Turning to `Cc1ccccc1-c1nc(-c2ccc(-n3cccn3)nc2)no1`, the RP-LC retention time was determined as 1310 s.

As to `CCn1c(=O)c2ccccc2n(Cc2nc(-c3ccc(F)c(Br)c3)no2)c1=O`, the RP-LC retention time came to 1120 s.

The molecule `Cc1csc(-n2nc(C)c(CC(=O)Nc3cccc(Cl)c3)c2C)n1` yielded an RP-LC retention time of 1040 s.

Molecule `CCCCC(=O)Nc1nc(-c2ccc3c(c2)N(C)C(=O)C(C)O3)cs1` (stereo not drawn) came in with an RP-LC retention time of 953 s.

`Cc1nn(C)c(C)c1CNC(=O)CN1CCN(Cc2ccc(F)cc2)C1=O` came in with an RP-LC retention time of 623 s.

For `CCN1C(=O)COc2ccc(-c3noc(CNC(=O)C(c4ccccc4)c4ccccc4)n3)cc21`, the RP-LC retention time turned out to be 975 s.

Regarding `Cc1cccc(-c2nc(N3CCOCC3)ncc2C(=O)O)c1`, the RP-LC retention time turned out to be 787 s.

`O=C(CSc1ccc(-n2cccn2)nn1)NCc1ccco1` had an RP-LC retention time of 653 s.

In turn, `CN1c2ccc(F)cc2C(=O)NC12CCN(C(=O)c1ccc(F)cc1)CC2` gave an RP-LC retention time of 769 s.

Regarding `COc1ccc(N2CC(c3noc(-c4cc(OC)c(OC)c(OC)c4)n3)CC2=O)cc1OC` (stereo not drawn), the RP-LC retention time came out at 813 s.

With `CCOc1ccc(-c2[nH]nc3nc(-c4cccc(F)c4)cc(C(=O)O)c23)cc1`, the RP-LC retention time was found to be 843 s.

`CC(=O)NCc1csc(C2CCN(C(=O)COc3ccccc3)CC2)n1` showed an RP-LC retention time of 646 s.

`Cc1cc(-c2nnc(-c3ccccc3)o2)c(C)n1CC(=O)Nc1ccccc1`: the RP-LC retention time was 931 s.

`COc1ccc(-n2c(=O)c(C(=O)NC3CCCCCC3)c(O)c3cccnc32)cc1` showed an RP-LC retention time of 1380 s.

The molecule `CCNc1nc(C)cc(N2CCN(S(=O)(=O)c3ccc(OC)cc3)CC2)n1` had an RP-LC retention time of 677 s.

For `Cn1c(SCC(=O)Nc2ncn[nH]2)nc2ccsc2c1=O`, the RP-LC retention time came out at 583 s.

The molecule `COc1ccc(-c2cn3c(CC(=O)Nc4ccc(C(F)(F)F)cc4)csc3n2)cc1OC` registered an RP-LC retention time of 846 s.

The molecule `CCC(C)Nc1nc(-c2ccc(C)cc2)nnc1C` (stereo not drawn) gave an RP-LC retention time of 719 s.

In turn, `CCN1C(=O)c2cccnc2Sc2cc(CNC(=O)Cc3ccc(OC)cc3)ccc21` had an RP-LC retention time of 742 s.

For the molecule `COC(=O)c1ccccc1NC(=O)CC1CCCCN1S(=O)(=O)c1ccccc1` (stereo not drawn), the RP-LC retention time was 968 s.

As to `CC(C)c1noc(-c2ccc(-n3cnc(C(=O)N4CCOCC4)c3)nc2)n1`, the RP-LC retention time was 745 s.

`Cc1cc(=O)n(CC(=O)Nc2cc(F)ccc2C)c(N2CCCC2)n1` yielded an RP-LC retention time of 635 s.

With `COCCN1C(=O)[C@H]2CN(Cc3ccc(Cl)c(F)c3)C[C@H]2C1=O`, the RP-LC retention time was 638 s.

In turn, `Cc1ccc(NC(=O)C2CCN(S(=O)(=O)c3cn(C(C)C)cn3)CC2)cc1C` displayed an RP-LC retention time of 819 s.

Regarding `COc1ccc(CN2C(=O)CSc3c(c4ccccc4n3C)C2C(=O)NCCCOC(C)C)cc1` (stereo not drawn), the RP-LC retention time came out at 884 s.
